The values below come from PubChem BioAssay AID463222 (The Scripps Research Institute Molecular Screening Center, 2010).

The source made the active and inactive calls. No rule for the calls is given here.

Sequence of Serine/threonine-protein phosphatase 5 (Homo sapiens) (P53041 whole entry, looked up): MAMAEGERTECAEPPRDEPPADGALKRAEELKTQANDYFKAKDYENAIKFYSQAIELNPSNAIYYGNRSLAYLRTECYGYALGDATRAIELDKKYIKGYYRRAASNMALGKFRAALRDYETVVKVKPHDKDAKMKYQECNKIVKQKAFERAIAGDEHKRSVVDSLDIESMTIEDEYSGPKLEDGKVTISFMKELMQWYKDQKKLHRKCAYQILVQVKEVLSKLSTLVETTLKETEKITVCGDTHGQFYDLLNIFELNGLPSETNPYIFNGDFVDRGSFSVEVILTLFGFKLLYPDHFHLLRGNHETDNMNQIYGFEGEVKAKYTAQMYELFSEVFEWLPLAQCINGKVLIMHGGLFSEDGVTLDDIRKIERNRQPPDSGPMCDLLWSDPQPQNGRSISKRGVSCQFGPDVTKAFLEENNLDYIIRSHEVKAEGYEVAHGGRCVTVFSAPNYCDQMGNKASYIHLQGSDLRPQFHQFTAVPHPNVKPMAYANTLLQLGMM

The assay addresses Serine/threonine-protein phosphatase 5 (Homo sapiens) (UniProt P53041). Description: PP5 phosphatase inhibitors, OMFP substrate, late-stage follow-up, biochemical, fluorescence, single concentration (AID 463222). The conditions noted are these: PP5 OMFP dephosphorylation, at 6.7 µM, stronger effect = higher value.
For `O=C(NC1(O)C(=O)c2ccccc2C1=O)c1ccc(C(F)(F)F)cc1`, the inhibition is 11.6% (inactive).

As to `Oc1cccc(/C=N/Nc2cc(N3CCCC3)nc(N3CCCC3)n2)c1`, the inhibition was 9.26% (inactive).

Turning to `O=C1CCCC2=C1C1(O)C(=O)c3ccccc3C1(O)O2` (stereo not given), the inhibition is 9.53% (inactive).

Regarding `O=C(O)c1cc(-c2ccc(Cl)c(Cl)c2)n(-c2ccc(F)cc2)n1`, the inhibition is -3.2% (inactive).

In the case of `COc1ccc(NC(=O)C2C3CCC(O3)C2C(=O)O)c(OC)c1` (stereo not given), the inhibition was 51.1%.

On to `O=C(NC1(O)C(=O)c2ccccc2C1=O)c1ccccc1`, for which the inhibition was 4.22% (inactive).

Take `O=S(=O)(Cc1cc(NCc2ccccc2)nc(-c2ccccn2)n1)c1ccccc1`: the inhibition is 4.59% (inactive).

Turning to `Oc1ccc(/C=N/Nc2cc(N3CCOCC3)nc(N3CCOCC3)n2)c(O)c1`, the inhibition is 11.4% (inactive).

On to `CCOC(=O)c1cnc(-n2nc(C)cc2C)nc1NCCc1ccccc1`, for which the inhibition was 6.83% (inactive).

As for `CN1CCN(C(c2ccccn2)c2cc(Cl)c3cccnc3c2O)CC1` (stereo not given), the inhibition was 8.11% (inactive).

As to `COc1cnc(-c2ccccn2)nc1Sc1ccc(C)cc1`, the inhibition is 2.23% (inactive).

Turning to `COc1ccc(Cl)cc1C(=O)Nc1cccc(-c2ccc3nncn3n2)c1`, the inhibition was -0.16% (inactive).

With `O=c1[nH]c(Nc2ccccc2)cc2ccccc12`, the inhibition is 4.67% (inactive).

For `O=C(Nc1nc(-c2ccccn2)cs1)C1CC(=O)N(c2ccc3c(c2)OCCO3)C1` (stereo not given), the inhibition was 2.9% (inactive).

For the molecule `Cc1ccc(-n2nc(C(=O)O)cc2-c2ccc(Cl)cc2)cc1`, the inhibition was -5.42% (inactive).

Take `CCOC(=O)c1sc(N2C(=O)C(O)=C(C(=O)c3ccco3)C2c2cccc([N+](=O)[O-])c2)nc1C` (stereo not given): the inhibition was -2.08% (inactive).

Consider `Nc1nc(-c2ccccn2)nc(N)c1Cc1ccc(Cl)cc1Cl`, for which the inhibition is 2.71% (inactive).

`COc1ccccc1Sc1nc(-c2ccccn2)ncc1OC`: the inhibition is -3.47% (inactive).

Take `Cc1nnc(NC(=O)C2C3C=CC(O3)C2C(=O)O)s1` (stereo not given): the inhibition was 22.3%.

For `COc1cnc(-c2ccccn2)nc1Sc1cccc(Cl)c1`, the inhibition is 4.14% (inactive).

As for `CCOC(=O)c1cnc(-n2nc(C)cc2C)nc1NC(C)c1ccccc1` (stereo not given), the inhibition was 5.83% (inactive).

As to `CCOC(=O)c1sc2nc3c(SCC(=O)O)cc(C(=O)c4cc(F)ccc4O)cn3c(=O)c2c1C`, the inhibition is -0.13% (inactive).

Take `Cc1cc(C)c(S(=O)(=O)/N=C2\C=C(Sc3ncn[nH]3)C(=O)c3ccccc32)cc1C`: the inhibition was 4.08% (inactive).

As for `CCOC(=O)c1nn(-c2ccc(C)cc2)c(=O)c2c(N)scc12`, the inhibition was -0.12% (inactive).

Consider `O=C1Nc2ccccc2N2CCCC12` (stereo not given), for which the inhibition is -3.11% (inactive).

As to `CCn1c2ccccc2c2cc(NC(=O)COC(=O)c3ccc(NC(=O)CC#N)cc3)ccc21`, the inhibition was -3.03% (inactive).

Turning to `CCOC(=O)c1cnc(-n2cc(C)cn2)nc1NCc1ccc2c(c1)OCO2`, the inhibition is 2.2% (inactive).

For the molecule `COc1ccc(NC(=S)Nc2ccc3nsnc3c2)cc1`, the inhibition was 2.75% (inactive).

As for `CCCN(CC1CC1)c1nc(N)c2c(N)nc(OC)cc2c1C#N`, the inhibition was 2.08% (inactive).

Turning to `COc1ccc2c(Cl)c(C(=O)N/N=C/c3ccc4c(c3)OCO4)sc2c1`, the inhibition is -2.37% (inactive).

With `CCOC(=O)c1cnc(-n2nc(C)cc2C)nc1NC1CCCCC1`, the inhibition is 3.66% (inactive).

Regarding `Cc1ccc(C(=O)NNc2cc(N3CCCC3)nc(N3CCCC3)n2)cc1`, the inhibition is 8.52% (inactive).

On to `COc1ccc(Sc2nc(-c3ccccn3)ncc2OC)cc1`, for which the inhibition was 3.64% (inactive).

`Nc1cc2nsnc2cc1Br`: the inhibition is 0.76% (inactive).

Turning to `COc1cnc(-c2ccccn2)nc1Sc1ccccc1`, the inhibition is 3.72% (inactive).

As to `CCOC(=O)C1=C(C)OC2(O)c3ccccc3C(=O)C12O` (stereo not given), the inhibition is 11.2% (inactive).

Turning to `COc1cnc(-c2ccccn2)nc1Oc1cccc(C(F)(F)F)c1`, the inhibition was -5.73% (inactive).

Take `COc1cnc(-c2ccccn2)nc1Sc1ccccc1Cl`: the inhibition is 3.05% (inactive).

Turning to `c1ccc(Nc2nc(-c3ccccn3)cs2)cc1`, the inhibition is 2.82% (inactive).

Take `CCCCn1c(NC(=O)c2ccco2)c(C(=O)OCC)c2nc3ccccc3nc21`: the inhibition was 2.48% (inactive).

Turning to `CCCCN(CC)c1nc(N)c2c(N)nc(OCC)cc2c1C#N`, the inhibition was 0.32% (inactive).

With `COc1ccc(CN2C(=O)Cc3c2nc(N)c2c(N)nc(N4CCCCC4)c(C#N)c32)cc1`, the inhibition was 1.97% (inactive).

For the molecule `N#Cc1c(N2CCCC(O)C2)nc(N)c2c(N)nc3c(c12)CC(=O)N3C12CC3CC(CC(C3)C1)C2` (stereo not given), the inhibition is 2.54% (inactive).

Regarding `COc1ccc(C(=O)c2nccc3cc(OC)c(OC)cc23)cc1OC`, the inhibition was 2.42% (inactive).

Take `CCOC(=O)c1cnc(-n2nc(C)cc2C)nc1NCc1ccccc1`: the inhibition is 3.84% (inactive).

Consider `COc1ccc(Cn2c(N)c(C(=O)NCc3ccco3)c3nc4ccccc4nc32)cc1OC`, for which the inhibition was 2.29% (inactive).

Take `Oc1ccccc1/C=N/Nc1cc(N2CCCC2)nc(N2CCCC2)n1`: the inhibition is 7.43% (inactive).

Consider `Cc1[nH]n(-c2ccccc2)c(=O)c1C(c1ccc([N+](=O)[O-])cc1)c1c(C)[nH]n(-c2ccccc2)c1=O`, for which the inhibition was -3.88% (inactive).

Regarding `COc1cc(Br)c(C(=O)c2nccc3cc(OC)c(OC)cc23)cc1OC`, the inhibition was 1.12% (inactive).

For the molecule `CC(=O)C(C(C)=O)C1(O)C(=O)c2ccccc2C1=O`, the inhibition was 6.75% (inactive).

Consider `COc1cnc(-c2ccccn2)nc1Oc1cccc(Cl)c1`, for which the inhibition is 0.53% (inactive).

On to `COc1cnc(-c2ccccn2)nc1Sc1ccc(Cl)cc1`, for which the inhibition is 4.61% (inactive).

With `O=C(O)c1cc(-c2ccc(Cl)c(Cl)c2)n(-c2ccccc2)n1`, the inhibition is -2.01% (inactive).

Take `Cc1ccc(C(=O)NC2(O)C(=O)c3ccccc3C2=O)cc1C`: the inhibition is 6.31% (inactive).

Take `N#Cc1c(-c2ccc(Cl)cc2)cc(-c2cccs2)nc1SCC(=O)O`: the inhibition is -2.49% (inactive).

For `COc1cnc(-c2ccccn2)nc1Sc1ccc(F)cc1`, the inhibition is 5.48% (inactive).

Regarding `COc1ccc(OCCCC(=O)Nc2nc(-c3ccccn3)cs2)cc1`, the inhibition is 5.93% (inactive).

As to `O=C(O)c1n[nH]nc1-c1ccccc1`, the inhibition was 53.4%.

On to `CC(C)(CS(=O)(=O)[O-])NC(=O)CC[N+](C)(C)CCO`, for which the inhibition was 0.86% (inactive).

As for `O=C(O)C1C2CCC(O2)C1C(=O)NC1CCCCC1` (stereo not given), the inhibition was 42.5%.

Consider `O=C(O)c1cc(-c2ccc(Cl)cc2)n(-c2cccc(Cl)c2)n1`, for which the inhibition was -5.16% (inactive).

In the case of `CCOc1ccc(NC(=S)Nc2ccc3nsnc3c2)cc1`, the inhibition is 3.93% (inactive).

For `Clc1ccc(-n2nnnc2-c2cnc(-c3ccccn3)nc2-c2cccs2)cc1`, the inhibition is -2.47% (inactive).

In the case of `c1ccc(-c2nccc(-c3ccc(-n4cnc5ccccc54)cc3)n2)nc1`, the inhibition is 6.97% (inactive).

For `O=C(NC1(O)C(=O)c2ccccc2C1=O)c1c(Cl)cccc1Cl`, the inhibition was 8.39% (inactive).

As usually defined, the inhibition is the drop in the measured response relative to a control, in per cent.
